Target: T1, ERBB4 (HER4) (Homo sapiens, UniProt Q15303)
T1 construct: purchased Thermo Fisher Scientific (Life Technologies) SelectScreen
Assay: SelectScreen Z'LYTE
Format: biochemical
Method in brief: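 Percent values come from Thermo SelectScreen profiling of NU5455, combining activity and binding assays. CSF1R was run in Z'LYTE format at Km app ATP, and CAMK1 in Adapta format with ATP listed at 10.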

T1 sequence (Q15303 26-1308): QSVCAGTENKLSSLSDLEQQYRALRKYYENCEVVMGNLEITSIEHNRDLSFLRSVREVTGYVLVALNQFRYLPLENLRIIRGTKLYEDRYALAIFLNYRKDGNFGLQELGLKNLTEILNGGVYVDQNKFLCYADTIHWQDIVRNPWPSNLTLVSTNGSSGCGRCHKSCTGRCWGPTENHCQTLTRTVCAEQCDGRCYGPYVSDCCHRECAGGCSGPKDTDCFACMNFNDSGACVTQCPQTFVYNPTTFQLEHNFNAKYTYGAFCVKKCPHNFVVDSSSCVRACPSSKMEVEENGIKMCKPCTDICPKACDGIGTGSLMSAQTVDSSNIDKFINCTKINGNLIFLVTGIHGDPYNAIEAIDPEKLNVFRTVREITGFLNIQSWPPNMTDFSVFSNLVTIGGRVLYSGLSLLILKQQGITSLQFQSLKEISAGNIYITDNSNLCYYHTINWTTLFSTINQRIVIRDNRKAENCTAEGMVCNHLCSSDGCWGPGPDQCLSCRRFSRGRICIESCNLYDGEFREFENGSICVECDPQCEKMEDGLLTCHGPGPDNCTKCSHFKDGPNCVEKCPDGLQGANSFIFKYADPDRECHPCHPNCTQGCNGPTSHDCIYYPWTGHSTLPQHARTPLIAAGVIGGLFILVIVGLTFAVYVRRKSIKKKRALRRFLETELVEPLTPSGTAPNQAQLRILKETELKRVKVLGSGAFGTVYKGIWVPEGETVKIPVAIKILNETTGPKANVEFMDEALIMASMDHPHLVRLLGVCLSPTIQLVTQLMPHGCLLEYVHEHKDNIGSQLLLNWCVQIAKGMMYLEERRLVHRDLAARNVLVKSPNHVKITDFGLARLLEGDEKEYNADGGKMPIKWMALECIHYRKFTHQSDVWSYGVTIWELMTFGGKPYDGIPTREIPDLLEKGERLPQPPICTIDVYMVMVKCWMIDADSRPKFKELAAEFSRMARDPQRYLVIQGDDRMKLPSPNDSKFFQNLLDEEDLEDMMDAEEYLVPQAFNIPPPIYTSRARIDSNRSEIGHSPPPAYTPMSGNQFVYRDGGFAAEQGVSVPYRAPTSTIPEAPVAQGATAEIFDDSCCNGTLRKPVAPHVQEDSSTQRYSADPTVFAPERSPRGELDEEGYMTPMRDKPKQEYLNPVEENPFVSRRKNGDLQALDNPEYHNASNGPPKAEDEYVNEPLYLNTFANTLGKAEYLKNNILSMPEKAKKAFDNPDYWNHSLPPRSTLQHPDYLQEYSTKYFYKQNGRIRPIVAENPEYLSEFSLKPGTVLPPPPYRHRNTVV

SMILES: CN(C(=O)CN1CCOCC1)c1ccc2sc3c(-c4cccc5c(=O)cc(N6CC7CCC(C6)O7)oc45)cccc3c2c1 [NU5455]
- inhibition at 1 µM: -2.8%

From PMC6934184, “Selective DNA-PKcs inhibition extends the therapeutic index of localized radiotherapy and chemotherapy” (The Journal of Clinical Investigation, 2019)
